Data reported in ChEMBL document CHEMBL1128928, “Synthesis and biological properties of partially modified retro and retro-inverso pseudo peptides of arg-gly-asp (RGD)” (Bioorg Med Chem Lett, 1996).

Assays:
Format in all cases: functional
B16 [1] = experiment: Compound was evaluated for lung metastasis produced by 500 ug/mouse i.v. injection of B16-BL6 melanoma.; Range 44-154
Homo sapiens [2] = organism: Homo sapiens; experiment: Compound was evaluated for inhibition of ADP-induced human platelet aggregation at concentration 1 mg/mL.
B16 [3] = experiment: Compound was evaluated for lung metastasis produced by 500 ug/mouse i.v. injection of B16-BL6 melanoma,; Range 19-63
Homo sapiens [4] = organism: Homo sapiens; experiment: Compound was evaluated for inhibition of ADP-induced human platelet aggregation.
B16 [5] = experiment: Compound was evaluated for lung metastasis produced by 500 ug/mouse i.v. injection of B16-BL6 melanoma. Range 4-36

| Structure (SMILES) | No. of lung metastasis (B16 [1]) | inhibition at 1000 µg/mL (Homo sapiens [2]) [%] | No. of lung metastasis (B16 [3]) | IC50 (Homo sapiens [4]) [µM] | No. of lung metastasis (B16 [5]) |
| --- | --- | --- | --- | --- | --- |
| N=C(N)NCCC[C@H](N)C(=O)NCC(=O)N[C@@H](CC(=O)O)C(=O)N[C@@H](CO)C(=O)O | 93 | 100 |  |  |  |
| N=C(N)NCCC[C@@H](NC(=O)CC(=O)N[C@@H](CC(=O)O)C(=O)O)C(=O)O |  | 53 | 38 |  |  |
| N=C(N)NCCC[C@H](NC(=O)CC(=O)N[C@@H](CC(=O)O)C(=O)O)C(=O)O |  | 57 |  | 2400 | 19 |
